# According to patent US9518018B2, “3-alkoxy, thioalkyl and amino-4-amino-6-(substituted)picolinates and their use as herbicides” (Dow AgroSciences LLC, priority 2011, dated 2016):
# Assays:
# [1] = system: ZEAMX: corn (Zea mays); assay: Post-Emergent Test I herbicidal activity; assay type: in vivo; conditions: Zea mays, post-emergence, 336 h, Table 3, 280 g ai/ha, read-out: Visual Growth Reduction (%)-14 Days after Application ZEAMX
# Procedure, shortened: (§1)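 Seedlings are kept at 23–29 °C day / 22–28 °C night with ~15 h light and subirrigated after spraying to avoid wash-off. Compound in a crop-oil concentrate and Triton X-155 carrier is applied at 187 L/ha; 14-d visual injury feeds probit-derived growth-reduction doses (GR20/50/80).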
# [2] = system: ORYSA: rice (Oryza sativa); assay: Post-Emergent Test I herbicidal activity; assay type: in vivo; conditions: post-emergence, 336 h, Table 3, 280 g ai/ha, read-out: Visual Growth Reduction (%)-14 Days after Application ORYSA
# Procedure, shortened: (§2)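 Post-emergence foliar application to young greenhouse plants at 187 L/ha, five rates down to 1/16× of the top rate. Percent injury is assessed visually two weeks later against untreated plants.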
# [3] = system: ECHCG: barnyardgrass (Echinochloa crus-galli); assay: Post-Emergent Test I herbicidal activity; assay type: in vivo; conditions: post-emergence, 336 h, Table 3, 280 g ai/ha, read-out: Visual Growth Reduction (%)-14 Days after Application ECHCG
# Procedure, shortened: as §2
# [4] = system: EPHHL: wild poinsettia (Euphorbia heterophylla); assay: Post-Emergent Test I herbicidal activity; assay type: in vivo; conditions: post-emergence, 336 h, Table 3, 280 g ai/ha, read-out: Visual Growth Reduction (%)-14 Days after Application EPHHL
# Procedure, shortened: as §1
# [5] = system: CHEAL: lambsquarters (Chenopodium album); assay: Post-Emergent Test I herbicidal activity; assay type: in vivo; conditions: Chenopodium album, post-emergence, 336 h, Table 3, 280 g ai/ha, read-out: Visual Growth Reduction (%)-14 Days after Application CHEAL
# Procedure, shortened: as §1
# [6] = system: CYPES: yellow nutsedge (Cyperus esculentus); assay: Post-Emergent Test I herbicidal activity; assay type: in vivo; conditions: post-emergence, 336 h, Table 3, 280 g ai/ha, read-out: Visual Growth Reduction (%)-14 Days after Application CYPES
# Procedure, shortened: as §1
# [7] = system: ABUTH: velvetleaf (Abutilon theophrasti); assay: Post-Emergent Test I herbicidal activity; assay type: in vivo; conditions: Abutilon theophrasti, post-emergence, 336 h, Table 3, 280 g ai/ha, read-out: Visual Growth Reduction (%)-14 Days after Application ABUTH
# Procedure, shortened: as §1
smiles,measurement,setting,value
"COC(=O)c1nc(Cl)c(Cl)c(N)c1OC [Compound 2, methyl 4-amino-5,6-dichloro-3-methoxypicolinate]",pest or weed control at 280 g/ha,[1],0%
same,pest or weed control at 280 g/ha,[2],0%
same,pest or weed control at 280 g/ha,[3],0%
same,pest or weed control at 280 g/ha,[4],95%
same,pest or weed control at 280 g/ha,[5],90%
same,pest or weed control at 280 g/ha,[6],0%
same,pest or weed control at 280 g/ha,[7],90%
same,melting point,,119 to 121 °C
